Eight molecules from ChEMBL document CHEMBL1134954, “Synthesis and preliminary evaluation of trans-3,4-conformationally-restricted glutamate and pyroglutamate analogues as novel EAAT2 inhibitors” (2002) can be followed below.

What all share (assay type): functional
Holding throughout (parameters): scale not given: the % may be the effect or the level left

One test has as its system SNB-19. Nature of the test: Inhibitory activity (500 uM) against Cl-dependent uptake of [3H]L-glutamate (100 uM) into SNB-19 human astrocytoma cells to determine activity at system Xc glutamate/cystine exchanger.
Test [1] is described as follows: Potential inhibitory activity of EAAT3 by the ability (500 uM) to attenuate the Na-dependent uptake of [3H]D-aspartate (25 uM) into C6 rat glioma cells.
The species entered for test [2] is Rattus norvegicus. The experiment in a line: Inhibitory activity (250 uM) against ATP dependent uptake of [3H]L-glutamate (250 uM) by isolated synaptic vesicles from rat forebrain to quantify activity at vesicular glutamate transporter.
The species named for test [3] is Rattus norvegicus. Nature of the test: Potential inhibitory activity of EAAT2 by the ability (250 uM) to attenuate the Na-dependent uptake of [3H]D-aspartate (5 uM) into synaptosomes of rat forebrain. To be noted: Brain.

Each structure is given as a SMILES string.

With `NC(C(=O)O)[C@@H]1C2C=CC(C2)[C@H]1C(=O)O` (stereo partly specified), the Activity in the test with SNB-19 came out at 88%; in test [1] it was 87%; in the test listed under Rattus norvegicus [2], 93%; in the test filed under Rattus norvegicus [3], 35%.
`NC(C(=O)O)[C@@H]1CC=CC[C@H]1C(=O)O` (stereo partly specified): the Activity in the test on SNB-19 was determined as 101%; in test [1], 95%; in the test filed under Rattus norvegicus [2], 85%; in the test listed under Rattus norvegicus [3], 38%.
Turning to `N[C@@H](CCC(=O)O)C(=O)O`, the Activity in the test listed under Rattus norvegicus [3] is 28%.
With `CC1=C(C)C[C@@H](C(N)C(=O)O)[C@H](C(=O)O)C1` (stereo partly specified), the Activity in the test on SNB-19 worked out at 104%; in test [1], 100%; in the test listed under Rattus norvegicus [2], 99%; in the test filed under Rattus norvegicus [3], 71%.
Take `CC(C)[C@H]1CN[C@H](C(=O)O)[C@H]1CC(=O)O`: the Activity in the test listed under Rattus norvegicus [3] is 22%.
As to `CC1=C(C)C[C@H]2C(C(=O)O)NC(=O)[C@@H]2C1` (stereo partly specified), the Activity amounted to 103% in the test with SNB-19, 97% in test [1], 96% in the test listed under Rattus norvegicus [2] and 77% in the test listed under Rattus norvegicus [3].
Regarding `O=C(O)C1NC(=O)[C@@H]2CC=CC[C@@H]12` (stereo partly specified), the Activity with SNB-19 stood at 89%; in test [1], 93%; in the test listed under Rattus norvegicus [2], 103%; in the test listed under Rattus norvegicus [3] it was 53%.
As for `NC(C(=O)O)[C@@H]1C2C=CC(CC2)[C@H]1C(=O)O` (stereo partly specified), the Activity in the test with SNB-19 stood at 88%; in test [1], 97%; in the test listed under Rattus norvegicus [2], 104%; in the test listed under Rattus norvegicus [3], 70%.
